Earlier results as cited in patent US20050170064A1, “Plant sterol-containing food, and method for preparing the same” (Eugene Science Inc., priority 2002, published 2005).

Test system: LDL-C level
Conditions: applied form in an oil phase (margarine)

Q: With sitostanol fatty acid ester as the substance, how does the “Reduction of the LDL-C level” value read?
A: ≤ 16%
